Assays:
[1] = system: goblet cell metaplasia in mice lungs; assay: RWE-induced goblet cell metaplasia in mice lungs (PAS stain); format: in vivo; settings: RWE-sensitized and challenged mice, fidarestat 7 mg/kg body wt/day in drinking water, 72 h after challenge
Protocol: FIGS. 10A-10B. Inhibition or deficiency of AR prevents RWE-induced goblet cell metaplasia in mice lungs. RWE-sensitized normal and AR-null mice were challenged with RWE and 72 h later the lungs were harvested from mice treated without or with AR inhibitor (A) or AR-null mice (B), perfused and fixed with 4% paraformaldehyde and embedded in paraffin. The sections were stained with PAS stain and observed under light microscope and photomicrographs were acquired. A representative photomicrograph from each group is shown (n=4). Magnification 200× (A); 400× (B).
Wild type C57BL/6 and Balb/cJ mice were purchased from Harlan Sprague-Dawley (San Diego, Calif., USA) and AR null mice on C57BL/6 background were bread by us at Animal resource center, UTMB, Galveston, Tex. Six-eight weeks old female mice were sensitized with RWE as previously described (Hwang et al., FASEB J. 19: 795-797, 2005). Briefly, mice were sensitized with two intraperitoneal administrations of 100 μl of endotoxin-free RWE (150 μg) combined with Alum adjuvant (1 mg) in a 3:1 ratio (v/v), on days 0 and 4. On day 11, mice (n=6) were challenged intranasally with RWE (100 μg). A parallel group of mice received fidarestat (7 mg/kg body wt/day) in drinking water from one day before the challenge. Control groups of mice were challenged with equivalent volumes of PBS. […]

Muc5AC = assay: RT-PCR of Muc5AC in IL-13-treated SAEC monolayer; format: cell-based, human; settings: SAEC monolayer at ALI, IL-13 18 h
Protocol: (§1) FIGS. 6A-6B. AR inhibition prevents IL-13-induced expression of Mucin and transcription factor SPDEF in airway epithelial cell monolayer. (A) The airway epithelial cell monolayer at ALI was serum starved without or with fidarestat and incubated with IL-13 for 18 h. Total RNA was isolated and subsequently RT-PCR was performed to assess the expression of Muc5AC and SPDEF. The bar diagrams show densitometric analysis of the corresponding blots (n=4). *p<0.001 vs Control; **p<0.001 vs IL-13; (B) The monolayer of ciliated airway cells at ALI was treated with AR inhibitor for 24 h and subsequently incubated with IL-13 for 24 or 48 h. At the end of incubation, cell lysate was prepared and subjected to western blotting using antibodies against Muc5AC, Muc5B, and SPDEF. The membranes were stripped and re-probed with antibodies against GAPDH to show the equal loading of protein. A representative blot is shown (n=4). *p<0.0001 vs Control; **p<0.001 vs IL-13.
(§2) For air-liquid interface (ALI) culture, SAEC were seeded at 8.5×10^4 cells/12-mm-diameter PET transparent insert with […] pores (12-well millicell culture insert; Millipore) and pre-coated with rat tail collagen type-1 (Sigma-Aldrich). The cells were grown submerged in the differentiation medium as described earlier by Zhen et al. (Am J Respir Cell Mol Biol 36: 244-253, 2007). […]

SPDEF = assay: RT-PCR of SPDEF in IL-13-treated SAEC monolayer; format: cell-based, human; settings: SAEC monolayer at ALI, IL-13 18 h
Protocol: as §1, §2

NC(=O)[C@@H]1C[C@]2(NC(=O)NC2=O)c2cc(F)ccc2O1 [fidarestat, (2S,4S)-2-aminoformyl-6-fluoro-spiro[chroman-4,4′-imidazolidine]-2′,5′-dione]
PAS positive cells in the airway [1]: absent | IL-13-induced Muc5AC-specific RNA expression (Muc5AC): significantly prevented the increase | IL-13-induced SPDEF mRNA levels (SPDEF): decreased significantly
